Measured values from patent US20240158446A1, “CYCLIC COMPOUND HAVING SELECTIVE INHIBITORY ACTION ON KRAS OVER HRAS AND NRAS” (CHUGAI SEIYAKU KABUSHIKI KAISHA, priority 2021, published 2024).
Like-named read-outs stand apart in the source and are kept apart here. Where a SMILES comes first, the peptide text is derived from it. Bridges are numbered along the chain shown (N, C = ends). [ ]: non-standard residue; d: D form. The star is where a group is joined. hPhe(3-Cl-4-CF3) = N[C@@H](CCc1ccc(C(F)(F)F)c(Cl)c1)C(=O)O; NEtPhe(4-Me) = CCN[C@@H](Cc1ccc(C)cc1)C(=O)O; NMeGly(cPent) = CN[C@H](C(=O)O)C1CCCC1; Hyp = O=C(O)[C@@H]1C[C@@H](O)CN1; NMeD = CN[C@@H](CC(=O)O)C(=O)O; NMeL = CN[C@@H](CC(C)C)C(=O)O; Morpholide = C1CN(*)CCO1; Ac5c = NC1(C(=O)O)CCCC1; Sar = CNCC(=O)O

Key:
[1] = tested on: human lung cancer strain NCI-H441;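 note: cell proliferation inhibition after four days measured by CellTiter-Glo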
[2] = biological target: GDP-bound HRAS wild-type protein (Homo sapiens, UniProt P01112); experiment: Binding to HRAS by surface plasmon resonance (SPR), Single Cycle Kinetics; conditions: for HRAS/KRAS (ratio of KD value for HRAS to KD value for KRAS): SPR, GDP-bound HRAS wild-type protein vs GDP-bound KRAS wild-type protein; for HRAS/KRAS (ratio of KD value with respect to GDP-bound HRAS wild-type protein to KD value with respect to KRAS): SPR KD ratio HRAS/KRAS, class symbols
GDP-bound HRAS wild-type protein, sequence (P01112 whole entry): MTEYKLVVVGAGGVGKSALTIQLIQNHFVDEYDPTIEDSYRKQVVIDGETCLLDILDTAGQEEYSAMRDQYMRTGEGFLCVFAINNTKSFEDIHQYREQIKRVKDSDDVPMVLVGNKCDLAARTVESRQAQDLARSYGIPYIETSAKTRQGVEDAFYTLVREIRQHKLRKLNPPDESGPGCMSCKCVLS

[3] = biological target: GDP-bound NRAS wild-type protein (Homo sapiens, UniProt P01111); experiment: Binding to NRAS by surface plasmon resonance (SPR), Single Cycle Kinetics; conditions: for NRAS/KRAS (ratio of KD value for NRAS to KD value for KRAS): SPR, GDP-bound NRAS wild-type protein vs GDP-bound KRAS wild-type protein; for NRAS/KRAS (ratio of KD value with respect to GDP-bound NRAS wild-type protein to KD value with respect to KRAS): SPR KD ratio NRAS/KRAS, class symbols
GDP-bound NRAS wild-type protein, sequence (P01111 whole entry): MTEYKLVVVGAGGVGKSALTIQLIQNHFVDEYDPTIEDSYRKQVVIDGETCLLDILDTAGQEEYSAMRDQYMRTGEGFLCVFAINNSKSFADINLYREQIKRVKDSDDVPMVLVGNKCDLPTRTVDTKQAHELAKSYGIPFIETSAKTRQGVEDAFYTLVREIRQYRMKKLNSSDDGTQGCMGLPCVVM

[4] = biological target: GDP-bound KRAS wild-type protein (Homo sapiens, UniProt P01116); experiment: Binding to KRAS by surface plasmon resonance (SPR), Single Cycle Kinetics; conditions: GDP-bound KRAS wild-type protein, read-out: KRAS KD
GDP-bound KRAS wild-type protein, sequence (P01116 whole entry): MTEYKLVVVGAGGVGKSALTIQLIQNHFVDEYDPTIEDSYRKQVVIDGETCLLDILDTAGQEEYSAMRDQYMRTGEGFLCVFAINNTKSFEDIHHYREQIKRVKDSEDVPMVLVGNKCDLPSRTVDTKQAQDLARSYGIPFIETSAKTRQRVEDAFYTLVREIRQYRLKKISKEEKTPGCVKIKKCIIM

[5] = SPR Single Cycle Kinetics, 1:1 binding model
[6] = SPR, Single Cycle Kinetics, 1:1 binding model

| SMILES | IC50 [1] [nM] | Kd ([4]; SPR, Single Cycle Kinetics) [nM] | Kd [4, 5] [nM] | Kd [4, 6] [nM] | HRAS/KRAS (ratio of KD value for HRAS to KD value for KRAS) [2] | NRAS/KRAS (ratio of KD value for NRAS to KD value for KRAS) [3] | HRAS/KRAS (ratio of KD value with respect to GDP-bound HRAS wild-type protein to KD value with respect to KRAS) [2] | NRAS/KRAS (ratio of KD value with respect to GDP-bound NRAS wild-type protein to KD value with respect to KRAS) [3] | HRAS/KRAS (ratio of KD value for HRAS to KD value for KRAS) ([2]; KD ratio class) | NRAS/KRAS (ratio of KD value for NRAS to KD value for KRAS) ([3]; KD ratio class) |
| --- | --- | --- | --- | --- | --- | --- | --- | --- | --- | --- |
| CCO[C@@H]1C[C@H]2C(=O)NC3(CC(C)(C)C3)C(=O)N(C)[C@@H](C(CC)CC)C(=O)N(C)[C@H](C(=O)N(C)C)CC(=O)N(C)[C@@H](CC3CC3)C(=O)N[C@@H]([C@@H](C)CC)C(=O)N(C)CC(=O)N(C)[C@H]3C/C=C\CCN(C3=O)[C@@H](CC3CCC(F)(F)CC3)C(=O)N(C)CC(=O)N[C@@H](CCc3cc(F)c(C(F)(F)F)c(F)c3)C(=O)N2C1 [PP2485] | 55.5 | 0.78 | – | – | A (a compound having 10 or more and less than 20 is denoted as A) | A (a compound having 10 or more and less than 20 is denoted as A) | – | – | – | – |
| CCO[C@@H]1C[C@H]2C(=O)NC3(CC(C)(C)C3)C(=O)N(C)[C@@H](C3CCCC3)C(=O)N(C)[C@H](C(=O)N3CCCCC3)CC(=O)N(C)[C@@H](COC)C(=O)N[C@@H]([C@@H](C)CC)C(=O)N(C)CC(=O)N(C)[C@H]3C/C=C\CCN(C3=O)[C@@H](Cc3ccc(C)cc3)C(=O)N(C)CC(=O)N[C@@H](CCc3cc(F)c(C(F)(F)F)c(F)c3)C(=O)N2C1 [PP2668] | 10.3 | – | 0.18 | – | – | – | A (a compound having 10 or more and less than 20 is denoted as A) | A (a compound having 10 or more and less than 20 is denoted as A) | – | – |
| CCC[C@H]1C(=O)N[C@@H]([C@@H](C)CC)C(=O)N(C)CC(=O)N(C)[C@H]2C/C=C\CCN(C2=O)[C@@H](CC2CCC(F)(F)CC2)C(=O)N(C)CC(=O)N[C@@H](CCc2ccc(C(F)(F)F)c(OC)c2)C(=O)N2C[C@@H](C)C[C@H]2C(=O)N(C)C2(CCC2)C(=O)N(C)[C@@H](C2CCCC2)C(=O)N(C)[C@H](C(=O)N(C)C)CC(=O)N1C [PP2376] | 4.8 | 0.28 | – | – | A (a compound having 10 or more and less than 20 is denoted as A) | A (a compound having 10 or more and less than 20 is denoted as A) | – | – | – | – |
| CCO[C@@H]1C[C@H]2C(=O)NC3(CCC3)C(=O)N(C)[C@@H](C3CCCC3)C(=O)N(C)[C@H](C(=O)N3CCCCC3)CC(=O)N(C)[C@@H](CC(C)C)C(=O)N[C@@H]([C@@H](C)CC)C(=O)N(C)CC(=O)N(C)[C@H]3C/C=C\CCN(C3=O)[C@@H](Cc3ccc(C(F)(F)F)cc3)C(=O)N(C)CC(=O)N[C@@H](CCc3cc(F)c(C(F)(F)F)c(F)c3)C(=O)N2C1 [PP1290] | 15.4 | – | – | 0.24 | – | – | – | – | A (a compound having 10 or more and less than 20 is denoted as A) | AA (a compound having 20 or more is denoted as AA) |
| CCO[C@@H]1C[C@H]2C(=O)NC3(CC(C)(C)C3)C(=O)N(C)[C@@H](C3CCCC3)C(=O)N(C)[C@H](C(=O)N3CCCCC3)CC(=O)N(C)[C@@H](COC)C(=O)N[C@@H]([C@@H](C)CC)C(=O)N(C)CC(=O)N(C)[C@H]3C/C=C\CCN(C3=O)[C@@H](Cc3ccc(C(F)(F)F)cc3)C(=O)N(C)CC(=O)N[C@@H](CCc3ccc(Cl)c(Cl)c3)C(=O)N2C1 [PP2670] | 25.2 | – | 0.48 | – | – | – | A (a compound having 10 or more and less than 20 is denoted as A) | AA (a compound having 20 or more is denoted as AA) | – | – |
| CCO[C@@H]1C[C@H]2C(=O)NC3(CC(C)(C)C3)C(=O)N(C)[C@@H](C(CC)CC)C(=O)N(C)[C@H](C(=O)N(C)C)CC(=O)N(C)[C@@H](COC)C(=O)N[C@@H]([C@@H](C)CC)C(=O)N3CCC[C@H]3C(=O)N(C)[C@H]3C/C=C\CCN(C3=O)[C@@H](Cc3ccc(C(F)(F)F)cc3)C(=O)N(C)CC(=O)N[C@@H](CCc3ccc(Cl)c(Cl)c3)C(=O)N2C1 [PP2635] | 50.2 | – | 0.97 | – | – | – | A (a compound having 10 or more and less than 20 is denoted as A) | AA (a compound having 20 or more is denoted as AA) | – | – |
| CCC(CC)[C@H]1C(=O)N(C)[C@H](C(=O)N(C)C)CC(=O)N(C)[C@@H](COC)C(=O)N[C@@H]([C@@H](C)CC)C(=O)N(C2CC2)CC(=O)N(C)[C@H]2C/C=C\CCN(C2=O)[C@@H](Cc2ccc(C)cc2)C(=O)N(C)CC(=O)N[C@@H](CCc2cc(F)c(C(F)(F)F)c(F)c2)C(=O)N2C[C@H](OC3CCCC3)C[C@H]2C(=O)NC2(CC(C)(C)C2)C(=O)N1C [PP2619] | 132 | – | 1.2 | – | – | – | A (a compound having 10 or more and less than 20 is denoted as A) | AA (a compound having 20 or more is denoted as AA) | – | – |
| CCO[C@@H]1C[C@H]2C(=O)NC3(CC(C)(C)C3)C(=O)N(C)[C@@H](C(CC)CC)C(=O)N(C)[C@H](C(=O)N(C)C)CC(=O)N(C)[C@@H](COC)C(=O)N[C@@H]([C@@H](C)CC)C(=O)N(C3CC3)CC(=O)N(C)[C@H]3C/C=C\CCN(C3=O)[C@@H](CC3CCCCC3)C(=O)N(C)CC(=O)N[C@@H](CCc3cc(F)c(C(F)(F)F)c(F)c3)C(=O)N2C1 [PP2564] | 222 | – | 7.6 | – | – | – | A (a compound having 10 or more and less than 20 is denoted as A) | A (a compound having 10 or more and less than 20 is denoted as A) | – | – |

Further lines, with some results ahead:

| IC50 [1] [nM] | Kd ([4]; SPR, Single Cycle Kinetics) [nM] | Kd [4, 5] [nM] | Kd [4, 6] [nM] | SMILES | HRAS/KRAS (ratio of KD value for HRAS to KD value for KRAS) [2] | NRAS/KRAS (ratio of KD value for NRAS to KD value for KRAS) [3] | HRAS/KRAS (ratio of KD value with respect to GDP-bound HRAS wild-type protein to KD value with respect to KRAS) [2] | NRAS/KRAS (ratio of KD value with respect to GDP-bound NRAS wild-type protein to KD value with respect to KRAS) [3] | HRAS/KRAS (ratio of KD value for HRAS to KD value for KRAS) ([2]; KD ratio class) | NRAS/KRAS (ratio of KD value for NRAS to KD value for KRAS) ([3]; KD ratio class) |
| --- | --- | --- | --- | --- | --- | --- | --- | --- | --- | --- |
| 50.8 | 0.04 | – | – | CCO[C@@H]1C[C@H]2C(=O)NC3(CCC3)C(=O)N(C)[C@@H](C3CCCC3)C(=O)N(C)[C@H](C(=O)N(C)C)CC(=O)N(C)[C@@H](Cc3cccnc3)C(=O)N[C@@H]([C@@H](C)CC)C(=O)N(C)CC(=O)N(C)[C@H]3CCCCCN(C3=O)[C@@H](Cc3ccc(F)cc3)C(=O)N(C)CC(=O)N[C@@H](CCc3cc(F)c(C(F)(F)F)c(F)c3)C(=O)N2C1 [PP1196] | B (a compound having 3 or more and less than 10 is denoted as B) | B (a compound having 3 or more and less than 10 is denoted as B) | – | – | – | – |
| 34.7 | – | – | 0.66 | CCO[C@@H]1C[C@H]2C(=O)NC3(CCC3)C(=O)N(C)[C@@H](C(CC)CC)C(=O)N(C)[C@H](C(=O)N(C)C)CC(=O)N(C)[C@@H](CC3CC3)C(=O)N[C@@H]([C@@H](C)CC)C(=O)N(C)CC(=O)N(C)[C@H]3C/C=C\CCN(C3=O)[C@@H](Cc3ccc(C(F)(F)F)cc3)C(=O)N(C)CC(=O)N[C@@H](CCc3cc(F)c(Cl)c(F)c3)C(=O)N2C1 [PP1233] | – | – | – | – | A (a compound having 10 or more and less than 20 is denoted as A) | AA (a compound having 20 or more is denoted as AA) |
| 23.4 | 0.32 | – | – | CC[C@H](C)[C@@H]1NC(=O)[C@H](COC)N(C)C(=O)C[C@@H](C(=O)N(CC)CC)N(C)C(=O)[C@H](C2CCCC2)N(C)C(=O)C2(CC(C)(C)C2)NC(=O)[C@@H]2C[C@H](C)CN2C(=O)[C@H](CCc2cc(F)c(C(F)(F)F)c(F)c2)NC(=O)CN(C)C(=O)[C@H](Cc2ccc(C)cc2)N2CC/C=C\C[C@@H](C2=O)N(C)C(=O)CN(C)C1=O [PP2455] | A (a compound having 10 or more and less than 20 is denoted as A) | AA (a compound having 20 or more is denoted as AA) | – | – | – | – |
| 62.7 | – | 0.12 | – | CC[C@H](C)[C@@H]1NC(=O)[C@H](CC(C)C)N(C)C(=O)C[C@@H](C(=O)N2CCOCC2)N(C)C(=O)[C@H](C2CCCC2)N(C)C(=O)C2(CCCC2)NC(=O)[C@@H]2C[C@@H](O)CN2C(=O)[C@H](CCc2ccc(C(F)(F)F)c(Cl)c2)NC(=O)CN(C)C(=O)[C@H](Cc2ccc(C)cc2)N(CC)C(=O)CN(C)C(=O)CN(C)C1=O [PP0041] ([NMeL]I[Sar][Sar][NEtPhe(4-Me)][Sar][hPhe(3-Cl-4-CF3)][Hyp][Ac5c][NMeGly(cPent)][NMeD]-Morpholide; lactam N-11) | C (A compound having a KD ratio of 0.1 or more and less than 3 is denoted as C) | B (a compound having 3 or more and less than 10 is denoted as B) | – | – | – | – |
| 17.2 | 0.13 | – | – | CCOC[C@H]1C(=O)N[C@@H]([C@@H](C)CC)C(=O)N(C)CC(=O)N(C)[C@H]2C/C=C\CCN(C2=O)[C@@H](Cc2ccc(C)cc2)C(=O)N(C)CC(=O)N[C@@H](CCc2ccc(C(F)(F)F)c(OC)c2)C(=O)N2C[C@@H](C)C[C@H]2C(=O)NC2(CC(C)(C)C2)C(=O)N(C)[C@@H](C2CCCC2)C(=O)N(C)[C@H](C(=O)N(C)C)CC(=O)N1C [PP2505] | B (a compound having 3 or more and less than 10 is denoted as B) | A (a compound having 10 or more and less than 20 is denoted as A) | – | – | – | – |
| 305 | – | – | 1.1 | CCO[C@@H]1C[C@H]2C(=O)NC3(CCC3)C(=O)N(C)[C@@H](C3CCCC3)C(=O)N(C)[C@H](C(=O)N(C)C)CC(=O)N(C)[C@@H](CC3CCCC3)C(=O)N[C@@H]([C@@H](C)CC)C(=O)N(C)CC(=O)N(C)[C@H]3C/C=C\CCN(C3=O)[C@@H](Cc3ccc(F)cc3)C(=O)N(C)CC(=O)N[C@@H](CCc3ccc4sccc4c3)C(=O)N2C1 [PP1390] | – | – | – | – | A (a compound having 10 or more and less than 20 is denoted as A) | A (a compound having 10 or more and less than 20 is denoted as A) |
